Data on eleven compounds can be found in ChEMBL document CHEMBL1201862, “PubChem BioAssay data set” (2004).

Test in all cases: growth of human tumour cells (NCI), 48 h
Experiment [1] has as its system DU-145.
The subject of experiment [2] is HCT-15.
In experiment [3] the test system is Hs-578T.
Experiment [4] has as its system KM12.
The test system of experiment [5] is MCF7.
For experiment [6], the system named is Malme-3M.
Experiment [7] deals with NCI-H460.
In experiment [8] the test system is NCI-H522.
In experiment [9] the test system is OVCAR-3.
The subject of experiment [10] is OVCAR-5.
For experiment [11], the system named is OVCAR-8.
Experiment [12] concerns RPMI-8226.
The test system of experiment [13] is SF-268.
Experiment [14] relates to SF-295.
Experiment [15] relates to SK-MEL-28.
In experiment [16] the test system is SNB-75.
The test system of experiment [17] is T47D.
The test system of experiment [18] is U-251.
Experiment [19] relates to UO-31.
The subject of experiment [20] is NCI-H23.

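Growth conditions: 96-well plates. Treatment: test compound, 48 hours, 5 concentrations. Analysis: linear interpolation between bracketing concentrations; unreached endpoints set to highest concentration. Abbreviation: GI50, concentration required for 50% inhibition of growth.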 Activity calls are given as the source filed them. Cut-off read from the data, not from the text of the source: active = GI50 up to about 1.1 µM and inactive = higher.

In the case of `Cc1ccc(Cc2nn(C)c(=O)n2-n2cccc2)cc1`, the GI50 in experiment [1] was > 100 µM (inactive); in [2], above 100 µM; in experiment [3] it was > 100 µM (inactive); in [4] it was > 100 µM (inactive); in experiment [5], > 100 µM (inactive); in experiment [6], > 100 µM (inactive). The GI50 in experiment [7], in [8], in experiment [9], in [10], in experiment [11] and in experiment [12] was > 100 µM (inactive) each time. In addition, the GI50 in experiment [13], in experiment [14], in experiment [15], in experiment [16], in [17] and in experiment [18] was > 100 µM (inactive) each time. Besides, in experiment [19], the GI50 is > 100 µM (inactive).
As to `C=C1[C@@](C)([C@@H]2CCCS2)[C@H]2C(C)=C[C@]1(C)n1c(=O)n(-c3ccccc3)c(=O)n12`, the GI50 in [1] is > 100 µM (inactive); in experiment [2], above 100 µM; in experiment [3], > 100 µM (inactive); in experiment [4], > 100 µM (inactive); in experiment [5], > 100 µM (inactive); in experiment [6], > 100 µM (inactive). The GI50 in experiment [20], in experiment [7], in experiment [8], in experiment [9], in [10] and in experiment [12] was > 100 µM (inactive) in each case. Also, the GI50 in experiment [13] was > 100 µM (inactive); in [14], > 100 µM (inactive); in experiment [15], > 100 µM (inactive); in [16], 46.5 µM (inactive); in experiment [17], > 100 µM (inactive); in [18] it was > 100 µM (inactive). Further, in [19], the GI50 was > 100 µM (inactive).
For `O=C(CC(=O)N1N=C(N2CCCCC2)CC1c1ccccc1)Nc1ccc(Cl)cc1` (stereo unspecified), the GI50 was > 100 µM (inactive) in [1]; above 100 µM in experiment [2]; > 100 µM (inactive) in experiment [3]; > 100 µM (inactive) in experiment [4]; > 100 µM (inactive) in experiment [5]; > 100 µM (inactive) in experiment [6]. Also, the GI50 in experiment [20], in experiment [7], in [8], in [9], in experiment [10] and in experiment [11] was > 100 µM (inactive) each time. For the same compound, the GI50 in experiment [13], in [14], in experiment [15], in [16], in experiment [17] and in experiment [18] was > 100 µM (inactive) in each case. Further, the GI50 in [19] is > 100 µM (inactive).
Consider `CCC1CCN/C(=N/S(=O)(=O)c2cc(C)c(Cl)cc2S)N1` (stereo unspecified), for which the GI50 in [1] is 43.7 µM (inactive); in experiment [2], 38.5 µM; in experiment [3], 28.4 µM (inactive); in experiment [5], 33.3 µM (inactive); in experiment [6] it was 37.2 µM (inactive); in experiment [7], 8.2 µM (inactive). The GI50 is 27.7 µM (inactive) in [8]; 22.3 µM (inactive) in experiment [10]; 19.8 µM (inactive) in experiment [11]; 24.2 µM (inactive) in experiment [12]; 57 µM (inactive) in experiment [13]; 52.7 µM (inactive) in experiment [15]. The GI50 in experiment [16] was 40 µM (inactive); in [17], 26.8 µM (inactive); in experiment [18], 13.8 µM (inactive); in experiment [19], 36.3 µM (inactive).
`Cc1cc(Cc2c(C)c(C)c(Cc3cc(C)cc(C(C)(C)C)c3O)c(C)c2C)c(O)c(C(C)(C)C)c1`: the GI50 in experiment [1] was > 100 µM (inactive); in [2], above 100 µM; in experiment [3], > 100 µM (inactive); in [4], > 100 µM (inactive); in experiment [5] it was > 100 µM (inactive); in experiment [6], > 100 µM (inactive). The GI50 in experiment [7], in experiment [8], in [9], in [10], in [11] and in experiment [12] was > 100 µM (inactive) each time. Also, the GI50 in [13], in experiment [14], in [15], in experiment [16], in experiment [17] and in experiment [18] was > 100 µM (inactive) throughout. For the same compound, in experiment [19], the GI50 was > 100 µM (inactive).
In the case of `C=CCNC(=O)NNC(O)(C(=O)OCC)C(F)(F)F` (stereo unspecified), the GI50 in experiment [1] was > 100 µM (inactive); in experiment [2], above 100 µM; in experiment [3], > 100 µM (inactive); in [4] it was > 100 µM (inactive); in experiment [5] it was > 100 µM (inactive); in [6], > 100 µM (inactive). Also, the GI50 in experiment [20], in experiment [7], in experiment [8], in experiment [9], in experiment [10] and in experiment [11] was > 100 µM (inactive) in each case. For the same compound, the GI50 in experiment [12], in experiment [13], in experiment [15], in [16], in experiment [17] and in experiment [18] was > 100 µM (inactive) each time. The GI50 in experiment [19] was > 100 µM (inactive).
As to `COc1cc([C@@]23OC[C@@H]4[C@@H](OC[C@@H]42)c2cc4c(cc23)OCO4)cc(OC)c1OC`, the GI50 in [1] was < 0.01 µM (active); in [2] it was below 0.01 µM; in experiment [3], < 0.01 µM (active); in [4] it was < 0.01 µM (active); in [5] it was < 0.01 µM (active); in experiment [6] it was 0.0838 µM (active). Moreover, the GI50 in experiment [20] was < 0.01 µM (active); in experiment [7] it was < 0.01 µM (active); in [8] it was < 0.01 µM (active); in experiment [9] it was < 0.01 µM (active); in [10], > 48.2 µM (inactive); in experiment [11] it was < 0.01 µM (active). The GI50 in experiment [13] was 0.0851 µM (active); in experiment [14], < 0.01 µM (active); in experiment [15], 23.5 µM (inactive); in experiment [16] it was < 0.01 µM (active); in [17] it was 50.8 µM (inactive); in experiment [18] it was < 0.01 µM (active). Further, in [19], the GI50 is < 0.01 µM (active).
Turning to `COc1cccc(-c2cc(O)c3cccnc3n2)c1`, the GI50 in experiment [1] was 0.556 µM (active); in experiment [2], 0.0873 µM; in experiment [3], 0.092 µM (active); in experiment [4], 0.0581 µM (active); in experiment [5], 0.488 µM (active); in [6], > 100 µM (inactive). Moreover, the GI50 in [20] was 0.204 µM (active); in experiment [7], 0.1 µM (active); in experiment [8], 0.0698 µM (active); in experiment [9], 0.0571 µM (active); in experiment [11], 0.235 µM (active); in experiment [12], 0.195 µM (active). In addition, the GI50 in experiment [13] was 0.611 µM (active); in experiment [14], 0.075 µM (active); in [15] it was 0.234 µM (active); in [16] it was 0.0857 µM (active); in [17] it was > 100 µM (inactive); in experiment [18], 0.0984 µM (active). Also, the GI50 in experiment [19] was 12.3 µM (inactive).
Turning to `ClC1=C(Cc2ccccc2)Cc2ccc3c(c21)CCC3`, the GI50 in experiment [1] is 48.5 µM (inactive); in [2], 31.3 µM; in experiment [3], 23.2 µM (inactive); in [4], 18.3 µM (inactive); in experiment [5] it was 18.9 µM (inactive); in experiment [6] it was 24.2 µM (inactive). The GI50 in experiment [20] is 19.7 µM (inactive); in experiment [8] it was 17.7 µM (inactive); in experiment [9] it was 36.4 µM (inactive); in experiment [10], 61.2 µM (inactive); in experiment [11], 36.8 µM (inactive); in [12] it was 29.4 µM (inactive). Further, the GI50 is 33.2 µM (inactive) in [13]; 29.4 µM (inactive) in experiment [14]; 66.5 µM (inactive) in [15]; > 10 µM (inactive) in experiment [16]; 18.5 µM (inactive) in experiment [17]; 19.1 µM (inactive) in experiment [18]. Also, the GI50 in [19] was 21.8 µM (inactive).
Consider `COc1ccccc1N1CCN(CCCN2C(C(=O)c3ccccc3)=C(O)c3c(C)cc(C)nc3S2(=O)=O)CC1`, for which the GI50 was > 100 µM (inactive) in [1]; 56.6 µM in experiment [2]; 59.3 µM (inactive) in experiment [3]; > 100 µM (inactive) in experiment [4]; 96.4 µM (inactive) in experiment [5]; > 100 µM (inactive) in experiment [6]. The GI50 in experiment [20] is > 100 µM (inactive); in [7] it was 52.8 µM (inactive); in experiment [8], 32.2 µM (inactive); in experiment [9] it was 55 µM (inactive); in experiment [10] it was 92.7 µM (inactive); in [11] it was 64.1 µM (inactive). Besides, the GI50 in [13] was 42.5 µM (inactive); in [14] it was 35.7 µM (inactive); in experiment [15], > 100 µM (inactive); in experiment [16] it was 5.87 µM (inactive); in experiment [17], > 100 µM (inactive); in experiment [18] it was 58.6 µM (inactive). Besides, the GI50 in [19] is 27.8 µM (inactive).
As for `Clc1ccc(C2ON=C(c3ccccc3)N2C23CC4CC(CC(C4)C2)C3)cc1` (stereo unspecified), the GI50 is > 10 µM (inactive) in [1]; above 10 µM in [2]; > 10 µM (inactive) in experiment [3]; > 10 µM (inactive) in [4]; > 10 µM (inactive) in experiment [5]; > 10 µM (inactive) in [6]. The GI50 in [20], in experiment [7], in experiment [8], in [9], in experiment [10] and in experiment [11] was > 10 µM (inactive) each time. Moreover, the GI50 in experiment [12], in experiment [13], in [14], in experiment [15], in [16] and in experiment [17] was > 10 µM (inactive) in each case. Further, the GI50 in experiment [18] was > 10 µM (inactive).
